Experimental data reported in PubChem BioAssay (NCI).
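Exposure lasted 48 hours, with cells grown in 96-well plates and compounds tested at five concentrations. At the GI50, growth is halved. At the TGI there is no net growth.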

Experiments:
Assay in all cases: NCI tumour cell line growth inhibition, 48 h
UO-31 renal = system: UO-31 renal
HS 578T breast = system: HS 578T breast
KM12 colon = system: KM12 colon
MDA-MB-435 = system: MDA-MB-435
PC-3 prostate = system: PC-3 prostate
MOLT-4 leukemia = system: MOLT-4 leukemia
NCI-H23 lung = system: NCI-H23 lung
SF-539 CNS = system: SF-539 CNS
UACC-257 melanoma = system: UACC-257 melanoma
OVCAR-3 ovarian = system: OVCAR-3 ovarian
TK-10 renal = system: TK-10 renal
CAKI-1 renal = system: CAKI-1 renal
SW-620 colon = system: SW-620 colon
OVCAR-8 ovarian = system: OVCAR-8 ovarian
K-562 leukemia = system: K-562 leukemia
COLO 205 colon = system: COLO 205 colon
OVCAR-4 ovarian = system: OVCAR-4 ovarian
A549 NSCLC = system: A549 NSCLC
786-0 renal = system: 786-0 renal
HOP-62 NSCLC = system: HOP-62 NSCLC
HCC-2998 colon = system: HCC-2998 colon
OVCAR-5 ovarian = system: OVCAR-5 ovarian
LOX IMVI melanoma = system: LOX IMVI melanoma
MALME-3M melanoma = system: MALME-3M melanoma
RPMI-8226 leukemia = system: RPMI-8226 leukemia
NCI-H226 lung = system: NCI-H226 lung
SF-268 CNS = system: SF-268 CNS
SNB-19 CNS = system: SNB-19 CNS
HOP-92 NSCLC = system: HOP-92 NSCLC
BT-549 breast = system: BT-549 breast
DU-145 prostate = system: DU-145 prostate
SF-295 CNS = system: SF-295 CNS
T-47D breast = system: T-47D breast
IGROV1 ovarian = system: IGROV1 ovarian
SNB-75 CNS = system: SNB-75 CNS
MDA-MB-231 breast = system: MDA-MB-231 breast
NCI-H460 lung = system: NCI-H460 lung
A498 renal = system: A498 renal
SK-MEL-5 melanoma = system: SK-MEL-5 melanoma
HCT-116 colon = system: HCT-116 colon
NCI-H522 lung = system: NCI-H522 lung
EKVX NSCLC = system: EKVX NSCLC
ACHN renal = system: ACHN renal
NCI/ADR-RES ovarian = system: NCI/ADR-RES ovarian
HCT-15 colon = system: HCT-15 colon
SN12C renal = system: SN12C renal
M14 melanoma = system: M14 melanoma
HL-60(TB) leukemia = system: HL-60(TB) leukemia
SK-MEL-28 melanoma = system: SK-MEL-28 melanoma
CCRF-CEM leukemia = system: CCRF-CEM leukemia
RXF 393 renal = system: RXF 393 renal
SK-OV-3 ovarian = system: SK-OV-3 ovarian
UACC-62 melanoma = system: UACC-62 melanoma
HT29 colon = system: HT29 colon
U251 CNS = system: U251 CNS
MCF7 breast = system: MCF7 breast

CN1C(=O)C23CC4(C56CC78SSC(CO)(C(=O)N7C5Nc5ccccc56)N(C)C8=O)c5ccccc5NC4N2C(=O)C1(CO)SS3 (configuration not stated)
GI50 (UO-31 renal): 111 nM
TGI (UO-31 renal): 342 nM
GI50 (HS 578T breast): 52.9 nM
TGI (HS 578T breast): 191 nM
GI50 (KM12 colon): 54.4 nM
TGI (KM12 colon): 220 nM
GI50 (MDA-MB-435): 68.5 nM
TGI (MDA-MB-435): 146 nM
GI50 (PC-3 prostate): 38.8 nM
TGI (PC-3 prostate): 537 nM
GI50 (MOLT-4 leukemia): 34.3 nM
TGI (MOLT-4 leukemia): 3500 nM
GI50 (NCI-H23 lung): < 31.5 nM
TGI (NCI-H23 lung): 76.4 nM
GI50 (SF-539 CNS): 29.1 nM
TGI (SF-539 CNS): 64.9 nM
GI50 (UACC-257 melanoma): 37.2 nM
TGI (UACC-257 melanoma): 113 nM
GI50 (OVCAR-3 ovarian): 50.7 nM
TGI (OVCAR-3 ovarian): 218 nM
GI50 (TK-10 renal): 119 nM
TGI (TK-10 renal): 359 nM
GI50 (CAKI-1 renal): 56.1 nM
TGI (CAKI-1 renal): 290 nM
GI50 (SW-620 colon): 37.2 nM
TGI (SW-620 colon): 167 nM
GI50 (OVCAR-8 ovarian): 23 nM
TGI (OVCAR-8 ovarian): 185 nM
GI50 (K-562 leukemia): 524 nM
TGI (K-562 leukemia): 3640 nM
GI50 (COLO 205 colon): 19.5 nM
TGI (COLO 205 colon): 76 nM
GI50 (OVCAR-4 ovarian): 57.6 nM
TGI (OVCAR-4 ovarian): 237 nM
GI50 (A549 NSCLC): 48 nM
TGI (A549 NSCLC): 283 nM
GI50 (786-0 renal): 78.6 nM
TGI (786-0 renal): 172 nM
GI50 (HOP-62 NSCLC): 124 nM
TGI (HOP-62 NSCLC): 368 nM
GI50 (HCC-2998 colon): 46 nM
TGI (HCC-2998 colon): 132 nM
GI50 (OVCAR-5 ovarian): 81.3 nM
TGI (OVCAR-5 ovarian): 294 nM
GI50 (LOX IMVI melanoma): 52.1 nM
TGI (LOX IMVI melanoma): 243 nM
GI50 (MALME-3M melanoma): 17.7 nM
TGI (MALME-3M melanoma): 74.5 nM
GI50 (RPMI-8226 leukemia): 56.3 nM
TGI (RPMI-8226 leukemia): 3160 nM
GI50 (NCI-H226 lung): 130 nM
TGI (NCI-H226 lung): 359 nM
GI50 (SF-268 CNS): 80.7 nM
TGI (SF-268 CNS): 351 nM
GI50 (SNB-19 CNS): 192 nM
TGI (SNB-19 CNS): 643 nM
GI50 (HOP-92 NSCLC): 103 nM
TGI (HOP-92 NSCLC): 461 nM
GI50 (BT-549 breast): 106 nM
TGI (BT-549 breast): 347 nM
GI50 (DU-145 prostate): 29.6 nM
TGI (DU-145 prostate): 195 nM
GI50 (SF-295 CNS): 49.7 nM
TGI (SF-295 CNS): 135 nM
GI50 (T-47D breast): 21.3 nM
TGI (T-47D breast): 135 nM
GI50 (IGROV1 ovarian): 98.7 nM
TGI (IGROV1 ovarian): 279 nM
GI50 (SNB-75 CNS): 99.3 nM
TGI (SNB-75 CNS): 289 nM
GI50 (MDA-MB-231 breast): 130 nM
TGI (MDA-MB-231 breast): 653 nM
GI50 (NCI-H460 lung): 52.3 nM
TGI (NCI-H460 lung): 191 nM
GI50 (A498 renal): 74.8 nM
TGI (A498 renal): 155 nM
GI50 (SK-MEL-5 melanoma): 39.3 nM
TGI (SK-MEL-5 melanoma): 112 nM
GI50 (HCT-116 colon): 32.9 nM
TGI (HCT-116 colon): 313 nM
GI50 (NCI-H522 lung): 115 nM
TGI (NCI-H522 lung): 329 nM
GI50 (EKVX NSCLC): 89.2 nM
TGI (EKVX NSCLC): 526 nM
GI50 (ACHN renal): 71.5 nM
TGI (ACHN renal): 443 nM
GI50 (NCI/ADR-RES ovarian): 48.2 nM
TGI (NCI/ADR-RES ovarian): 189 nM
GI50 (HCT-15 colon): 35.3 nM
TGI (HCT-15 colon): 411 nM
GI50 (SN12C renal): 124 nM
TGI (SN12C renal): 673 nM
GI50 (M14 melanoma): 71.7 nM
TGI (M14 melanoma): 205 nM
GI50 (HL-60(TB) leukemia): 85.3 nM
TGI (HL-60(TB) leukemia): 50000 nM
GI50 (SK-MEL-28 melanoma): 23.5 nM
TGI (SK-MEL-28 melanoma): 69.5 nM
GI50 (CCRF-CEM leukemia): 21.9 nM
TGI (CCRF-CEM leukemia): 3040 nM
GI50 (RXF 393 renal): 12.9 nM
TGI (RXF 393 renal): 42 nM
GI50 (SK-OV-3 ovarian): 103 nM
TGI (SK-OV-3 ovarian): 291 nM
GI50 (UACC-62 melanoma): 62.2 nM
TGI (UACC-62 melanoma): 153 nM
GI50 (HT29 colon): 17.6 nM
TGI (HT29 colon): 162 nM
GI50 (U251 CNS): 46.4 nM
TGI (U251 CNS): 193 nM
GI50 (MCF7 breast): 14.5 nM
TGI (MCF7 breast): 122 nM
